{"source": "patent US20240216344A1", "about": "“THIAZOLIDINEDIONE ANALOGS FOR THE TREATMENT OF NAFLD AND METABOLIC DISEASES” (Cirius Therapeutics, Inc., priority 2019, published 2024)", "key": {"[1]": {"system": "3-dimensional bioprinted human liver organoids", "experiment": "3-dimensional bioprinted human liver organoids, fibrosis by collagen staining", "format": "cell-based", "conditions": "added to the tissue medium"}, "patients with NASH [2]": {"system": "patients with NASH", "experiment": "Meta-analysis of 17 NASH clinical trials: change from baseline in LFTs and biomarkers by study arm, composite outcome", "format": "in vivo, human", "conditions": "for % Change from Baseline ALT / % Change from Baseline AST / % Change from Baseline Alk Phos / % Change from Baseline CK-18 / % Change from Baseline ELF / % Change from Baseline GGT / % Change from Baseline HbA1c / % Change from Baseline Insulin: EMMINENCE, follow-up 12 months", "experimental": "(§1) Meta-regressions of NASH clinical trials were performed to examine associations between biomarker and histological changes within treatment groups, and to additionally examine associations between treatment effects on biomarkers and on liver histology. Trials that met the following criteria were included: • Randomized controlled clinical trial • Paired biopsies performed at baseline and follow-up, scored using the NASH CRN system.\n(§2) • Published results at baseline, follow-up, or changes from baseline for any the following liver injury markers or biomarkers: alanine aminotransferase (ALT), aspartate aminotransferase (AST), alkaline phosphatase, hemoglobin A1c (HbA1c), gamma-glutamyltransferase (GGT), insulin, cytokeratin-18 (CK-18), or Enhanced Liver Fibrosis (ELF) score. Variables selected were based on variables whose change was commonly reported in multiple studies. • Changes in histological scores for ballooning, inflammation, steatosis, and fibrosis, or the pre-determined endpoints of NASH resolution without worsening fibrosis or improvement in fibrosis with no worsening of NASH.\n(§3) All results from a search of PubMed for the keywords (“nonalcoholic steatohepatitis” or “non-alcoholic steatohepatitis”) and (“clinical trial” or “randomized”) and filtered for “Clinical Trial” were reviewed. EudraCT and ClinicalTrials.gov were searched for the keyword “nonalcoholic steatohepatitis” with results further filtered for phase 2 or 3, interventional, terminated or completed trials. These three sources returned 265 (PubMed), 153 (ClinicalTrials.gov), and 56 (EudraCT) results, which were each individually reviewed for inclusion in the analysis. Data extracted by one analyst from each source that included means and SDs at baseline, end of study, and changes from baseline to end of study for continuous variables were verified and corrected by a second analyst. Where SDs were not available, any provided estimate of variation was used to derive the SD where possible; a plot-digitizer program was used where data were presented in figures only. Data for dichotomous endpoints were extracted as the number of subjects with the event and corresponding sample size.\n(§4) Random effects weighted least squares meta-regressions with inverse variance weighting were used to examine the association of changes in ALT, AST, CK-18, HbA1c, fasting insulin levels, ELF, alkaline phosphatase and GGT with biopsy outcomes. CK-18[M30] was measured in all studies except EMMINENCE where CK-18[M651 was reported. These associations were assessed at an individual cohort level (within treatment group), as well as based on the treatment effect. Percent change from baseline in liver injury makers and biomarkers was used as the predictor when examining the associations in the individual cohorts with outcomes while the treatment ratio, the ratio of active to placebo with respect to the relative changes from baseline, was used as the predictor when assessing the association with the treatment effect on outcomes. Standardized mean changes (mean/SD) or standardized mean treatment differences (mean difference/pooled SD) were used for continuous outcomes and Freeman-Tukey double arcsine transformed proportions or log odds ratios were used for dichotomous outcomes. Meta-regression results were computed using the metafor package available in R. P-values <0.05 were considered statistically significant.\nFrom the meta-regression results, ranks for the association with responses and treatment effects for each histologic outcome (changes in ballooning, inflammation, steatosis, and fibrosis; NASH resolution without worsening of fibrosis, and fibrosis improvement without worsening of NAS) were assigned across seven biomarkers (AST, GGT, HbA1c, insulin, CK-18, ELF, and alkaline phosphatase) for both the slope and the mediator p-value (ranks 1-7, with 7 assigned to the biomarker with the greatest slope or lowest p-value). An average rank across all outcomes was then assigned to each biomarker. […]"}, "patients with NASH [3]": {"system": "patients with NASH", "experiment": "Meta-analysis of 17 NASH clinical trials: change from baseline in histological components and endpoint counts", "format": "in vivo, human", "conditions": "EMMINENCE trial", "experimental": "as §1, §2, §3\nAll studies included in the current meta-analysis used the NASH CRN histological scoring system for the scoring of the liver biopsy components. The two dichotomous endpoints considered were based on the currently approvable endpoints per FDA guidelines: NASH resolution without worsening of fibrosis, and fibrosis improvement without worsening of NASH.\nas §4"}}}
{"smiles": "COc1cccc(C(=O)COc2ccc(CC3SC(=O)NC3=O)cc2)c1", "note": "(centres unmarked) [MSDC-0602K]", "values": [{"measurement": "effects of the nutrients (stellate cell activation, fibrosis by collagen staining)", "setting": "[1]", "value": "both prevented and reversed"}, {"measurement": "treatment effect on the surrogate endpoint (weighted average of changes in AST, CK-18, HbA1c)", "setting": "patients with NASH [2]; 17 NASH clinical trials", "value": "largest treatment effects"}, {"measurement": "% Change from Baseline ALT", "setting": "patients with NASH [2]; 62.5 mg", "value": "−15.71", "unit": "%"}, {"measurement": "% Change from Baseline AST", "setting": "patients with NASH [2]; 62.5 mg", "value": "−8.08", "unit": "%"}, {"measurement": "% Change from Baseline Alk Phos", "setting": "patients with NASH [2]; 62.5 mg", "value": "−6.28", "unit": "%"}, {"measurement": "% Change from Baseline CK-18", "setting": "patients with NASH [2]; 62.5 mg", "value": "−7.08", "unit": "%"}, {"measurement": "% Change from Baseline ELF", "setting": "patients with NASH [2]; 62.5 mg", "value": 1.16, "unit": "%"}, {"measurement": "% Change from Baseline GGT", "setting": "patients with NASH [2]; 62.5 mg", "value": "−17.56", "unit": "%"}, {"measurement": "% Change from Baseline HbA1c", "setting": "patients with NASH [2]; 62.5 mg", "value": "−4.16", "unit": "%"}, {"measurement": "% Change from Baseline Insulin", "setting": "patients with NASH [2]; 62.5 mg", "value": "−10.85", "unit": "%"}, {"measurement": "% Change from Baseline ALT", "setting": "patients with NASH [2]; 125 mg", "value": "−28.13", "unit": "%"}, {"measurement": "% Change from Baseline AST", "setting": "patients with NASH [2]; 125 mg", "value": "−21.90", "unit": "%"}, {"measurement": "% Change from Baseline Alk Phos", "setting": "patients with NASH [2]; 125 mg", "value": "−10.70", "unit": "%"}, {"measurement": "% Change from Baseline CK-18", "setting": "patients with NASH [2]; 125 mg", "value": "−22.13", "unit": "%"}, {"measurement": "% Change from Baseline ELF", "setting": "patients with NASH [2]; 125 mg", "value": 0.09, "unit": "%"}, {"measurement": "% Change from Baseline GGT", "setting": "patients with NASH [2]; 125 mg", "value": "−13.47", "unit": "%"}, {"measurement": "% Change from Baseline HbA1c", "setting": "patients with NASH [2]; 125 mg", "value": "−3.79", "unit": "%"}, {"measurement": "% Change from Baseline Insulin", "setting": "patients with NASH [2]; 125 mg", "value": "−30.08", "unit": "%"}, {"measurement": "% Change from Baseline ALT", "setting": "patients with NASH [2]; 250 mg", "value": "−23.82", "unit": "%"}, {"measurement": "% Change from Baseline AST", "setting": "patients with NASH [2]; 250 mg", "value": "−11.81", "unit": "%"}, {"measurement": "% Change from Baseline Alk Phos", "setting": "patients with NASH [2]; 250 mg", "value": "−18.74", "unit": "%"}, {"measurement": "% Change from Baseline CK-18", "setting": "patients with NASH [2]; 250 mg", "value": "−8.61", "unit": "%"}, {"measurement": "% Change from Baseline ELF", "setting": "patients with NASH [2]; 250 mg", "value": 0.89, "unit": "%"}, {"measurement": "% Change from Baseline GGT", "setting": "patients with NASH [2]; 250 mg", "value": "−28.14", "unit": "%"}, {"measurement": "% Change from Baseline HbA1c", "setting": "patients with NASH [2]; 250 mg", "value": "−3.89", "unit": "%"}, {"measurement": "% Change from Baseline Insulin", "setting": "patients with NASH [2]; 250 mg", "value": "−30.62", "unit": "%"}, {"measurement": "Change from Baseline, mean: Ballooning", "setting": "patients with NASH [3]; MSDC-0602K 62.5 mg", "value": "−0.36"}, {"measurement": "Change from Baseline, mean: Fibrosis", "setting": "patients with NASH [3]; MSDC-0602K 62.5 mg", "value": 0.06}, {"measurement": "Change from Baseline, mean: Inflammation", "setting": "patients with NASH [3]; MSDC-0602K 62.5 mg", "value": "−0.08"}, {"measurement": "Change from Baseline, mean: Steatosis", "setting": "patients with NASH [3]; MSDC-0602K 62.5 mg", "value": "−0.57"}, {"measurement": "Fibrosis Improvement", "setting": "patients with NASH [3]; MSDC-0602K 62.5 mg", "value": "20/99"}, {"measurement": "NASH Resolution", "setting": "patients with NASH [3]; MSDC-0602K 62.5 mg", "value": "17/99"}, {"measurement": "Change from Baseline, mean: Ballooning", "setting": "patients with NASH [3]; MSDC-0602K 125 mg", "value": "−0.42"}, {"measurement": "Change from Baseline, mean: Fibrosis", "setting": "patients with NASH [3]; MSDC-0602K 125 mg", "value": "−0.12"}, {"measurement": "Change from Baseline, mean: Inflammation", "setting": "patients with NASH [3]; MSDC-0602K 125 mg", "value": "−0.22"}, {"measurement": "Change from Baseline, mean: Steatosis", "setting": "patients with NASH [3]; MSDC-0602K 125 mg", "value": "−0.51"}, {"measurement": "Fibrosis Improvement", "setting": "patients with NASH [3]; MSDC-0602K 125 mg", "value": "23/98"}, {"measurement": "NASH Resolution", "setting": "patients with NASH [3]; MSDC-0602K 125 mg", "value": "23/98"}, {"measurement": "Change from Baseline, mean: Ballooning", "setting": "patients with NASH [3]; MSDC-0602K 250 mg", "value": "−0.38"}, {"measurement": "Change from Baseline, mean: Fibrosis", "setting": "patients with NASH [3]; MSDC-0602K 250 mg", "value": "−0.06"}, {"measurement": "Change from Baseline, mean: Inflammation", "setting": "patients with NASH [3]; MSDC-0602K 250 mg", "value": "−0.12"}, {"measurement": "Change from Baseline, mean: Steatosis", "setting": "patients with NASH [3]; MSDC-0602K 250 mg", "value": "−0.67"}, {"measurement": "Fibrosis Improvement", "setting": "patients with NASH [3]; MSDC-0602K 250 mg", "value": "25/101"}, {"measurement": "NASH Resolution", "setting": "patients with NASH [3]; MSDC-0602K 250 mg", "value": "27/101"}]}
